From ChEMBL document CHEMBL4673322, “Discovery and optimization of a potent and selective indazolamine series of IRAK4 inhibitors” (Bioorg Med Chem Lett, 2021)
Values after ≈ are worked out from the molar mass of the structure shown. One block for each molecule: values may come before it.

Experiments:
[1] = Metabolic stability in human liver microsomes assessed as intrinsic clearance; assay type: ADME, Microsome; conditions: read-out: CLH
[2] = Metabolic stability in rat liver microsomes assessed as intrinsic clearance; assay type: ADME, Microsome; conditions: read-out: CLH
[3] = Half life in Sprague-Dawley rat at 5 mg/kg, po; assay type: ADME, organism-based; conditions: in vivo
[4] = Oral bioavailability in Sprague-Dawley rat at 5 mg/kg; assay type: ADME, organism-based; conditions: in vivo
[5] = AUC in Sprague-Dawley rat at 5 mg/kg, po; assay type: ADME, organism-based; parameters: dose 5 mg/kg; conditions: in vivo
[6] = Metabolic stability in mouse liver microsomes assessed as intrinsic clearance; assay type: ADME, Microsome; conditions: read-out: CLH
[7] = Cmax in Sprague-Dawley rat at 5 mg/kg, po; assay type: ADME, organism-based; parameters: route oral, dose 5 mg/kg; conditions: in vivo
[8] = Clearance in dog at 0.5 mg/kg, iv; assay type: ADME, organism-based, Canis lupus familiaris; conditions: in vivo
[9] = Metabolic stability in human Hepatocyte assessed as half life; assay type: ADME, tissue-based; conditions: hepatocytes
[10] = Half life in dog at 2 mg/kg, po; assay type: ADME, organism-based, Canis lupus familiaris; conditions: in vivo
[11] = Protein binding in human plasma; assay type: ADME, cell-free; conditions: read-out: PPB (converted)
[12] = Metabolic stability in dog liver microsomes assessed as intrinsic clearance; assay type: ADME, Canis lupus familiaris, Microsome; conditions: read-out: CLH
[13] = Oral bioavailability in mouse at 2 mg/kg; assay type: ADME, organism-based; conditions: in vivo
[14] = Apparent permeability across basolateral to apical side; assay type: ADME; conditions: not told
[15] = AUC (0 to 24 hrs) in monkey at 2 mg/kg, po; assay type: ADME, organism-based, Macaca mulatta; parameters: time < 24 hr, route oral, dose 2 mg/kg; conditions: rhesus monkey, in vivo
[16] = AUC(0 to 24 hrs) in mouse at 1 mg/kg, iv; assay type: ADME, organism-based; parameters: time < 24 hr, route intravenous, dose 1 mg/kg; conditions: in vivo
[17] = Cmax in Sprague-Dawley rat at 10 mg/kg, po; assay type: ADME, organism-based; parameters: route oral, dose 10 mg/kg; conditions: in vivo
[18] = Metabolic stability in monkey liver microsomes assessed as intrinsic clearance; assay type: ADME, Macaca mulatta, Microsome; conditions: rhesus monkey, read-out: CLH
[19] = AUC(0 to 24 hrs) in mouse at 2 mg/kg, po; assay type: ADME, organism-based; parameters: time < 24 hr, route oral, dose 2 mg/kg; conditions: in vivo
[20] = Half life in monkey at 2 mg/kg, po; assay type: ADME, organism-based, Macaca mulatta; conditions: rhesus monkey, in vivo
[21] = AUC (0 to 24 hrs) in monkey at 0.5 mg/kg, iv; assay type: ADME, organism-based, Macaca mulatta; parameters: time < 24 hr, route intravenous, dose 0.5 mg/kg; conditions: rhesus monkey, in vivo
[22] = AUC (0 to 24 hrs) in dog at 0.5 mg/kg, iv; assay type: ADME, organism-based, Canis lupus familiaris; parameters: time < 24 hr, route intravenous, dose 0.5 mg/kg; conditions: in vivo
[23] = Volume of distribution at steady state in monkey at 0.5 mg/kg, iv; assay type: ADME, organism-based, Macaca mulatta; conditions: rhesus monkey, in vivo, read-out: Vdss
[24] = Oral bioavailability in monkey at 2 mg/kg; assay type: ADME, organism-based, Macaca mulatta; conditions: rhesus monkey, in vivo
[25] = Half life in dog at 0.5 mg/kg, iv; assay type: ADME, organism-based, Canis lupus familiaris; conditions: in vivo
[26] = Half life in mouse at 1 mg/kg, iv; assay type: ADME, organism-based; conditions: in vivo
[27] = Clearance in mouse at 1 mg/kg, iv; assay type: ADME, organism-based; conditions: in vivo
[28] = physchem; conditions: FaSSIF, pH 6.5
Description: Solubility in FassIF at pH 6.5

[29] = in vivo; conditions: Sprague-Dawley, rat, iv, 1 mg/kg
Description: Clearance in Sprague-Dawley rat at 1 mg/kg, iv

[30] = AUC (0 to 24 hrs) in dog at 2 mg/kg, po; assay type: ADME, organism-based, Canis lupus familiaris; parameters: time < 24 hr, route oral, dose 2 mg/kg; conditions: in vivo
[31] = Half life in Sprague-Dawley rat at 10 mg/kg, po; assay type: ADME, organism-based; conditions: in vivo
[32] = Apparent permeability across apical to basolateral side; assay type: ADME; conditions: not told
[33] = Volume of distribution at steady state in dog at 0.5 mg/kg, iv; assay type: ADME, organism-based, Canis lupus familiaris; conditions: in vivo, read-out: Vdss
[34] = Half life in monkey at 0.5 mg/kg, iv; assay type: ADME, organism-based, Macaca mulatta; conditions: rhesus monkey, in vivo
[35] = Oral bioavailability in dog at 2 mg/kg; assay type: ADME, organism-based, Canis lupus familiaris; conditions: in vivo
[36] = Clearance in monkey at 0.5 mg/kg, iv; assay type: ADME, organism-based, Macaca mulatta; conditions: rhesus monkey, in vivo
[37] = Volume of distribution at steady state in mouse at 1 mg/kg, iv; assay type: ADME, organism-based; conditions: in vivo, read-out: Vdss
[38] = AUC (0 to 24 hrs) in Sprague-Dawley rat at 10 mg/kg, po; assay type: ADME, organism-based; parameters: time < 24 hr, route oral, dose 10 mg/kg; conditions: in vivo

CLint scaled [1]: 1.28 mL/min/kg
CLint scaled [2]: 3.11 mL/min/kg
half-life [3]: 3.6 h
bioavailability [4]: 84%
AUC [5]: 18400 ng·h/mL
CLint scaled [6]: 3.91 mL/min/kg
Cmax [7]: 2310 ng/mL
Structure (SMILES): CC(C)(O)CCn1cc2cc(NC(=O)c3cccc(C(F)(F)F)n3)c(C(C)(C)O)cc2n1

Structure (SMILES): CN(C)CCn1cc2cc(NC(=O)c3cccc(C(F)(F)F)n3)c(C(C)(C)O)cc2n1
clearance [8]: 55.6 mL/min/kg
half-life [9]: 9.72 h
half-life [10]: 6.4 h
CLint scaled [1]: 5.25 mL/min/kg
fraction unbound [11]: 0.014
CLint scaled [12]: 116 mL/min/kg
bioavailability [13]: 67.3%
Papp B→A [14]: 22.7 ×10⁻⁶ cm/s
AUC(0-t) at 24 h [15]: 3670 ng·h/mL
AUC(0-t) at 24 h [16]: 966 ng·h/mL
Cmax [17]: 2110 ng/mL
CLint scaled [18]: 1.96 mL/min/kg
AUC(0-t) at 24 h [19]: 1300 ng·h/mL
CLint scaled [2]: 15 mL/min/kg
half-life [20]: 3.5 h
AUC(0-t) at 24 h [21]: 1870 ng·h/mL
AUC(0-t) at 24 h [22]: 148 ng·h/mL
Vd [23]: 0.67 L/kg
bioavailability [24]: 49%
half-life [25]: 0.72 h
half-life [26]: 1.62 h
clearance [27]: 17.1 mL/min/kg
solubility [28]: 92.3 µM (≈ 40.2 µg/mL)
clearance [29]: 8.3 mL/min/kg
AUC(0-t) at 24 h [30]: 85.3 ng·h/mL
half-life [31]: 3.3 h
Papp A→B [32]: 27.3 ×10⁻⁶ cm/s
Vd [33]: 2.63 L/kg
half-life [34]: 1.96 h
bioavailability [35]: 14.4%
clearance [36]: 4.86 mL/min/kg
Vd [37]: 2.43 L/kg
AUC(0-t) at 24 h [38]: 11900 ng·h/mL
CLint scaled [6]: 8.82 mL/min/kg

Cmax [17]: 3320 ng/mL
clearance [29]: 5.5 mL/min/kg
half-life [31]: 3.5 h
AUC(0-t) at 24 h [38]: 34500 ng·h/mL
Structure (SMILES): COc1cc(NC(=O)c2cccc(C(F)(F)F)n2)cc2cn(CCC(C)(C)O)nc12
